Reference: paper PMC4830886, “Extended evaluation on the ES-D3 cell differentiation assay combined with the BeWo transport model, to predict relative developmental toxicity of triazole compounds” (Archives of Toxicology, 2015)
Marks after values point to notes of the source that are not given here.

Assays:
[1] = tested on: time-mated Wistar rats; test: in vivo maternal and prenatal developmental toxicity screening study (OECD 414 principles); conditions: rat
Excerpt: The major differences to a full guideline study were the smaller sample size, using 9–10 instead of at least 16 pregnant rats, per test substance.
The animals were paired by the breeder [time-mated Wistar rats, Crl: WI (Han), Charles River Laboratories, Sulzfeld, Germany], between 10 and 12 weeks of age, and supplied on the day of evidence of mating; this day is referred to as gestational day (GD) 0 and following day as GD 1. […] This strain has been extensively used, both in our laboratory and elsewhere, and is sensitive to reproductive toxicants. All rats were housed individually in Makrolon cages with Lignocel PS 14 fibers dust-free bedding and wooden enrichment blocks. The cages were kept in climate-controlled rooms at 20–24 °C with a relative humidity of 30–70 %, an air exchange rate of 15 times per hour and a 12-h light/dark cycle. Diet (Ground Kliba SA, Switzerland) and tap water were provided ad libitum. In-life data (mortality, clinical signs, body weights and food consumption) were recorded throughout the study, but presented only if relevant for the interpretation of prenatal developmental effects.
The test compounds administered by gavage were administrated between 100 and 600 mg/kg bw/day using the vehicle 1 % carboxymethylcellulose in deionized water. The standard dose volume was 10 ml/kg bw.
On GD 20, the surviving dams were anesthetized with isoflurane, killed by decapitation and examined macroscopically. For each dam, the uterus was opened and the number, distribution and classification of implantation sites (live fetus, early and late fetal resorptions, and dead fetus) were determined. The fetuses were removed, sexed and fetal body weight determined. Gross pathological examination of the fetuses, including assessment of abnormalities of the fetal membranes, placentas, amniotic fluid and umbilical cord, was performed. Subsequently, all fetuses were killed by injection of pentobarbital. […] The other half of the fetuses of each dam was fixed in Harrison’s fluid. […] A permanent structural change that is likely to affect adversely the survival or health was assessed as malformation. A change that also occurs in the fetuses of control animals and/or is unlikely to affect adversely the survival or health was assessed as variation. This includes delays in growth or morphogenesis that have otherwise followed a normal pattern of development.
Maternal toxicity was classified as slight if body weight and/or carcass weight reduction is not above 10 %, moderate if body weight and/or carcass weight reduction is between 10 and 20 % and severe if body weight and/or carcass weight reduction is above 20 %. All the in vivo data are expressed as the affected fetuses/litter.

[2] = WST-1 cytotoxicity assay with ES-D3 cells; assay type: cell-based; conditions: mouse, ES-D3 embryonic stem cells, WST-1, 5-day exposure, read-out: decline in cell viability
Procedure: The murine ES-D3 cell line was purchased from ATCC (Wesel, Germany). The cells were maintained in polystyrene cell culture flasks (Corning, The Netherlands) in Dulbecco’s modified Eagle’s medium (DMEM, Invitrogen, Breda, The Netherlands), supplemented with 20 % heat-inactivated fetal calf serum (Lonza, BioWhittaker, Verviers, Belgium), 50 U/ml penicillin with 50 μg/ml streptomycin (Invitrogen), 2 mM L-glutamine (Invitrogen), 0.1 mM β-mercaptoethanol (Sigma-Aldrich) and 1 % (v/v) nonessential amino acids (Invitrogen), at 37 °C and 5 % CO2 in a humidified atmosphere. Cells were kept undifferentiated with 1000 U/ml murine leukemia inhibiting factor (LIF) (Sigma-Aldrich) and subcultured every 2–3 days using nonenzymatic cell dissociation solution (Sigma-Aldrich) to detach the cells.
To determine cytotoxicity of the compounds, a WST-1 assay was performed. This assay measures the influence of test compounds on the formation of the water-soluble formazan reaction product from WST-1 by mitochondrial succinate-tetrazolium reductase enzymes. The cytotoxicity of a test compound inversely correlates with the absorbance of the produced formazan quantified spectrophotometrically as described previously (Reitsma et al. [2013]). ES-D3 cells were exposed to test compounds for the duration of 1 or 5 days as described before (Li et al. [2015]). Briefly, cells were seeded in 96-well plates (Greiner bio-one) at concentrations of 20 × 10^4 cells/ml (1-day exposure) or 1 × 10^4 cells/ml (5-day exposure) in 100 μl culture medium in the absence of LIF and incubated for 1 day to allow cell adherence. Then, the cells were exposed to the test compounds at concentrations up to 60 μM (final solvent concentration 0.2 % DMSO) and subsequently cultured for 1 or 5 days at 37 °C and 5 % CO2 in a humidified atmosphere. Solvent DMSO (0.2 %) was used as a negative control and 1 % Triton X-100 served as a positive control in all cytotoxicity assays. After incubation of 1 or 5 days, 20 μl WST-1 reagent (Roche, Woerden, The Netherlands) was added to each well and the plates were incubated for another 3 h. Then, absorbance was measured at 450 nm using a SpectraMax M2 (Molecular Devices, Sunnyvale, USA). Three wells were used per treatment in each independent experiment. Three independent experiments were done for each compound. The cell viability was expressed as % of the solvent control, with the solvent control set at 100 % viability. Reproducible results were obtained from the treatments of negative and positive controls in all of the cytotoxicity assays.

[3] = female, Wistar Crl:WI(Han), in vivo
[4] = gavage GD 6–19, 600 mg/kg, affected fetuses/litter
[5] = gavage GD 6–19, 200 mg/kg, affected fetuses/litter
[6] = 1 = highest potential, 6 = lowest, among the six test compounds
[7] = gavage GD 6–19, 100 mg/kg, affected fetuses/litter

SMILES	Ranking (in vivo prenatal developmental toxicity potency) [1, 3]	Early resorption (%) ([1]; gavage GD 6–19, 200 mg/kg)	Fetal weight (%) ([1]; gavage GD 6–19, 200 mg/kg)	Late resorption (%) ([1]; gavage GD 6–19, 200 mg/kg)	Maternal toxicity classification ([1]; gavage GD 6–19, 200 mg/kg)	Maternal toxicity findings ([1]; gavage GD 6–19, 200 mg/kg)	Placenta weight (%) ([1]; gavage GD 6–19, 200 mg/kg)	Postimplantation loss (%) ([1]; gavage GD 6–19, 200 mg/kg)	Total number of fetuses ([1]; gavage GD 6–19, 200 mg/kg)	Early resorption (%) ([1]; gavage GD 6–19, 600 mg/kg)	Fetal weight (%) ([1]; gavage GD 6–19, 600 mg/kg)	Late resorption (%) ([1]; gavage GD 6–19, 600 mg/kg)	Placenta weight (%) ([1]; gavage GD 6–19, 600 mg/kg)	Postimplantation loss (%) ([1]; gavage GD 6–19, 600 mg/kg)	Total number of fetuses ([1]; gavage GD 6–19, 600 mg/kg)	cytotoxicity at 5 days, 60 µM [2] [%]	Malformation, Total (skeletal) [1, 5]	Malformation, Total (skeletal) [1, 4]	Ranking (in vivo prenatal developmental toxicity potency) [1, 6]	further results
OC(c1cccnc1)c1c(-c2ccc(F)cc2F)noc1-c1ccc(Cl)cc1F (stereo not shown) [compound 0594, [5-(4-Chloro-2-fluoro-phenyl)-3-(2,4-difluoro-phenyl)-isoxazol-4-yl]-pyridin-3-yl-methanol]	4	5.9	107	1.9	No	No	110%	7.8	99	14.1	101	0.8	116	14.9%	98	30				Bent femur [1, 4]: Bent femur 12.5%
OC(c1cccnc1)c1c(-c2ccc(F)cc2F)csc1-c1ccc(F)cc1F (stereo not shown) [compound 0595, [2,4-Bis-(2,4-difluoro-phenyl)-thiophen-3-yl]-pyridin-3-yl-methanol]	6	21.9	102	2.0	No	NAD	117%	24	74	100		0.0		100.0** %	0	20	Total 0%			Maternal body weight (BW) ([1]; gavage GD 6–19, 600 mg/kg): 74%; Maternal carcass weight (CW) ([1]; gavage GD 6–19, 600 mg/kg): 89%; Maternal mortality ([1]; gavage GD 6–19, 600 mg/kg): 30%; teratogenic potential ([1]; overall assessment of the in vivo study): no teratogenic potential
CC(c1nc(-c2ccc(C#N)cc2)cs1)C(O)(Cn1cncn1)c1ccc(F)cc1 (stereo not shown) [compound 0596, 4-{2-[2-(4-Fluoro-phenyl)-2-hydroxy-1-methyl-3-[1,2,4]triazol-1-yl-propyl]-thiazol-4-yl}-benzonitrile]		2.9	108	0.0	No	NAD	127** %	2.9	109	7.7	105	0.8	133	8.6%	102	70		Total 100 %**	2	Misshapen basisphenoid [1, 5]: 30.6%; Misshapen cervical arch [1, 5]: 14.3%; Severely malformed skull bones [1, 5]: 5.3%; Maternal toxicity classification ([1]; gavage GD 6–19, 600 mg/kg): No; Maternal toxicity findings ([1]; gavage GD 6–19, 600 mg/kg): NAD; Misshapen basisphenoid [1, 4]: 13%; Misshapen cervical arch [1, 4]: 70.2%; Severely malformed skull bones [1, 4]: 82.8%
CC(c1nc(-c2ccc(C#N)cc2)cs1)C(O)(Cn1ccnc1)c1ccc(F)cc1 (stereo not shown) [compound 0599, 4-[2-[2-(4-Fluorophenyl)-2-hydroxy-3-imidazol-1-yl-1-methyl-propyl]thiazol-4-yl]benzonitrile]																80			1	Early resorption (%) ([1]; gavage GD 6–19, 100 mg/kg): 7.8%; Fetal weight (%) ([1]; gavage GD 6–19, 100 mg/kg): 102%; Late resorption (%) ([1]; gavage GD 6–19, 100 mg/kg): 0.8%; Maternal carcass weight (CW) ([1]; gavage GD 6–19, 100 mg/kg): 91%; Placenta weight (%) ([1]; gavage GD 6–19, 100 mg/kg): 116%; Postimplantation loss (%) ([1]; gavage GD 6–19, 100 mg/kg): 8.6%; Total number of fetuses ([1]; gavage GD 6–19, 100 mg/kg): 99; Maternal body weight change BWC (6–8) ([1]; gavage GD 6–19, 100 mg/kg, GD 6–8): 66%; Maternal food consumption FC (6–20) ([1]; gavage GD 6–19, 100 mg/kg, GD 6–20): > 74%; Malformation, CP (cleft palate) [1, 7]: 10%; Malformation, Total (skeletal) [1, 7]: 100%; Misshapen basisphenoid [1, 7]: 74.2%; Misshapen temporal bone [1, 7]: 85.4%; Small tuberositas deltoidea [1, 7]: 66.3%; Maternal mortality ([1]; gavage GD 6–19, 250 mg/kg): Mortality 100 %**; Total number of fetuses ([1]; gavage GD 6–19, 250 mg/kg): 0
CC1CC(C)OC(Cn2cncn2)(c2ccc(Oc3ccc(Cl)cc3)cc2Cl)O1 (stereo not shown) [compound 0600, 1-[[2-[2-Chloro-4-(4-chlorophenoxy)phenyl]-4,6-dimethyl-1,3-dioxan-2-yl]methyl]-1,2,4-triazole]	3	4.0	102	0.0	No	NAD	105%	4.0	99	6.0	102	1.0	130	7.0%	104	20	Total 0%	81%		Malformation, CP (cleft palate) [1, 4]: 5%; Misshapen pterygoid bones [1, 4]: 36.3%; Small tuberositas deltoidea [1, 4]: 48.1%
